The values that follow come from patent US20230047816A1 (priority 2018, published 2023).

The target of the assay is Recombinant full length human PFKFB3 (Homo sapiens, UniProt Q16875). Kind of assay: PFKFB3 kinase activity assay (ADP production, ADP-Glo).
Chain of Recombinant full length human PFKFB3 (Q16875 whole entry): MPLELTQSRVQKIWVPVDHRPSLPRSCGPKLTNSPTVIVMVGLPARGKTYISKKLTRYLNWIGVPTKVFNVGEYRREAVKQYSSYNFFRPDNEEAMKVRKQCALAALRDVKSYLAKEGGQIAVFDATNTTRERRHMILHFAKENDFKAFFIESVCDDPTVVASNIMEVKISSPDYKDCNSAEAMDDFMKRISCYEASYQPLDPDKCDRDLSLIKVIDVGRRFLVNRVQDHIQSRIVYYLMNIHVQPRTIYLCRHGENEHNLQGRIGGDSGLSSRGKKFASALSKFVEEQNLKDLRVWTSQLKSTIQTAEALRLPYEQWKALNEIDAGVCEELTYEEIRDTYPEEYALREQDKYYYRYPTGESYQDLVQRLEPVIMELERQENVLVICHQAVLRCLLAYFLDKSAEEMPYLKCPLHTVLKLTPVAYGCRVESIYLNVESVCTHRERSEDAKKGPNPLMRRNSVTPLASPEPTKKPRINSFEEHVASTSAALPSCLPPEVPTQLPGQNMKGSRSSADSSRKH

Protocol: Recombinant full length human PFKFB3 (or PFKFB4) protein purified from Sf9 baculoviral system was acquired from SignalChem (Cat. #P323-30G or P324-30G). ATP, Fructose-6-Phosphate and other chemicals were from Sigma-Aldrich. The kinase activity of the PFKFB3 (PFKFB4) protein was detected by measuring production of ADP from ATP in the presence of the Fructose-6-Phosphate substrate. The kinase reactions were assembled in 384 well plates in a total volume of 25 μL. Test compounds were serially diluted in DMSO. Reactions were set up by first mixing test compounds with enzyme and pre-incubating for 15 min. The ATP and Fructose-6-Phosphate substrates were next added to initiate the kinase reactions.
The compounds of invention listed below in this example were tested at various concentrations (which also added 1% DMSO from compounds, to the final solution) as described below. The kinase reactions were allowed to proceed for 1 h at room temperature. Aliquots of the reaction mixtures (5 μL) were transferred to fresh white 384 well plates and mixed with 5 μL of the ADP-Glo reagent (Promega), followed by incubation for 30 min. The luminescent Kinase Detection reagent was added (10 μL) and, following additional incubation for 15 min, the plates were read on luminescence plate reader (Analyst HT). Positive (100%-inhibition) and negative (0%-inhibition) control samples were assembled in each assay plate and were used to calculate percent inhibition values of test compounds. All experiments were performed in duplicate.

A word on the IC50: it is the midpoint of a concentration-inhibition curve. Consider `O=C(O)c1cc(C(=O)Nc2cc(-c3ccc(Cl)cc3Cl)ccc2C(=O)O)c(C(=O)O)cc1O` [Example 44, 2-({4-carboxy-2′,4′-dichloro-[1,1′-biphenyl]-3-yl}carbamoyl)-5-hydroxybenzene-1,4-dicarboxylic acid], for which the half-inhibitory concentration (IC50) is < 0.5 µM.

In the case of `COCCOC(=O)c1ccc(-c2ccccc2)cc1N1C(=O)c2ccc(-c3c[nH]nn3)cc2C1=O` [Compound 69, 3-[1,3-Dioxo-5-(1H-[1,2,3]triazol-4-yl)-1,3-dihydroisoindol-2-yl]biphenyl-4-carboxylic acid 2-methoxy-ethyl ester], the IC50 lay in the range of 2 to 5 µM.

Take `N#Cc1c(N2C(=O)c3ccc(C(=O)O)cc3C2=O)sc(-c2ccccc2)c1-c1ccccc1` [Compound 133, 2-(3-Cyano-4,5-diphenylthiophen-2-yl)-1,3-dioxo-2,3-dihydro-1H-isoindole-5-carboxylic acid]: the IC50 is < 0.5 µM.

As to `O=C(O)c1cc(-c2cnn[nH]2)ccc1CNc1cc(-c2ccc(F)c(F)c2)ccc1C(=O)O` [Example 6, 3-({[2-carboxy-4-(2H-1,2,3-triazol-4-yl)phenyl]methyl}amino)-3′,4′-difluoro-[1,1′-biphenyl]-4-carboxylic acid], the IC50 is < 0.5 µM.

For `COc1ccc(-c2c(C)sc(N3C(=O)c4ccc(C(=O)N[C@H](C(=O)O)C(C)C)cc4C3=O)c2C#N)cc1` [Example 19], the IC50 fell in the range of 5 to 20 µM.

Take `CN(C)C(=O)c1cc(O)c(C(=O)N=S(C)(C)=O)cc1C(=O)Nc1cc(-c2ccc(Cl)cc2Cl)ccc1C(=O)O` [Example 42, 2′,4′-dichloro-3-(5-((dimethyl(oxo)-λ^6-sulfanylidene)carbamoyl)-2-(dimethylcarbamoyl)-4-hydroxybenzamido)-[1,1′-biphenyl]-4-carboxylic acid]: the IC50 lay within 2 to 5 µM.

Regarding `O=C(O)c1cc(-c2cnccn2)ccc1N1C(=O)c2ccc(-c3c[nH]nn3)cc2C1=O` [Example 63], the IC50 was in the range of 5 to 20 µM.

As for `COC(=O)c1ccc2c(c1)C(=O)N(c1cc(-c3ccc(F)c(F)c3)ccc1C(=O)OC)C2` [Compound 127, 2-(3′,4′-Difluoro-4-methoxycarbonylbiphenyl-3-yl)-3-oxo-2,3-dihydro-1H-isoindole-5-carboxylic acid methyl ester], the IC50 is < 20 µM.

As to `N#Cc1c(NC(=O)c2ccc(C(=O)O)cc2C(N)=O)sc(-c2ccccc2)c1-c1ccccc1` [Example 11, 3-carbamoyl-4-[(3-cyano-4,5-diphenylthiophen-2-yl)carbamoyl]benzoic acid], the IC50 is < 0.5 µM.

For the compound `O=C(O)c1ccc2c(c1)C(=O)N(c1cc(-c3ccc(F)c(F)c3F)ccc1C(=O)O)C2=O` [Compound 139, 2-(4-Carboxy-2′,3′,4′-trifluoro[1,1′-biphenyl]-3-yl)-1,3-dioxo-2,3-dihydro-1H-isoindole-5-carboxylic Acid], the IC50 was < 0.5 µM.

As to `Cc1oc(=O)oc1COC(=O)c1ccc(-c2ccc(F)c(F)c2)cc1N1Cc2ccc(-c3c[nH]nn3)cc2C1=O` [Compound 116, 3′,4′-Difluoro-3-[1-oxo-6-(1H-[1,2,3]triazol-4-yl)-1,3-dihydro-isoindol-2-yl]-biphenyl-4-carboxylic acid (5-methyl-2-oxo-[1,3]dioxol-4-yl)methyl ester], the IC50 was in the range of 5 to 20 µM.

For `O=C(OCCN1CCOCC1)c1cc(-c2ccccc2)ccc1N1C(=O)c2ccc(-c3c[nH]nn3)cc2C1=O` [Compound 80, 4-[1,3-Dioxo-5-(1H-[1,2,3]triazol-4-yl)-1,3-dihydroisoindol-2-yl]biphenyl-3-carboxylic acid 2-morpholin-4-yl-ethyl ester], the IC50 was < 20 µM.

As to `CC(C)OC(=O)c1ccc(-c2ccc(F)c(F)c2)cc1N1Cc2ccc(CO)cc2C1=O` [compound 156, isopropyl 3′,4′-difluoro-3-(6-(hydroxymethyl)-1-oxoisoindolin-2-yl)biphenyl-4-carboxylate], the IC50 was < 20 µM.

With `CCCCOC(=O)c1ccc2c(c1)C(=O)N(c1cc(-c3ccc(F)c(F)c3)ccc1C(N)=O)C2` [Compound 123, 2-(4-Carbamoyl-3′,4′-difluorobiphenyl-3-yl)-3-oxo-2,3-dihydro-1H-isoindole-5-carboxylic acid butyl ester], the half-maximal inhibitory concentration (IC50) is < 20 µM.

As for `COc1ccc(-c2ccc(C(=O)O)c(N3C(=O)c4ccc(C(=O)O)cc4C3=O)c2)cc1` [Example 55], the IC50 is < 0.5 µM.

Consider `CS(C)(=O)=NC(=O)c1ccc(C(=O)Nc2cc(-c3ccc(F)c(F)c3)ccc2C(=O)O)c(C(=O)O)c1` [Example 41, 3-(2-carboxy-4-{[methyl(methylidene)oxo-λ^6-sulfanyl]carbamoyl}benzamido)-3′,4′-difluoro-[1,1′-biphenyl]-4-carboxylic acid], for which the IC50 is < 0.5 µM.

On to `CS(=O)(=O)NC(=O)c1ccc2c(c1)C(=O)N(c1cc(-c3ccc(F)c(F)c3)ccc1C(N)=O)C2` [Compound 107, 3′,4′-Difluoro-3-(6-methanesulfonylaminocarbonyl-1-oxo-1,3-dihydroisoindol-2-yl)biphenyl-4-carboxylic acid amide], for which the half-maximal inhibitory concentration (IC50) was < 20 µM.

Regarding `CCCCOC(=O)c1ccc2c(c1)C(=O)N(c1cc(OC)c(-c3ccccc3)cc1C(=O)OC)C2=O` [Example 39], the half-inhibitory concentration (IC50) is < 20 µM.

On to `CN1CCN(CCOC(=O)c2ccc(-c3ccc(F)c(F)c3)cc2N2Cc3ccc(CO)cc3C2=O)CC1` [compound 155, 2-(4-methylpiperazin-1-yl)ethyl 3′,4′-difluoro-3-(6-(hydroxymethyl)-1-oxoisoindolin-2-yl)biphenyl-4-carboxylate], for which the 50% inhibitory concentration (IC50) was < 20 µM.

For `O=C(OCCN1CCCC1)c1ccc(-c2ccccc2)cc1N1C(=O)c2ccc(-c3c[nH]nn3)cc2C1=O` [Compound 68, 3-[1,3-Dioxo-5-(1H-[1,2,3]triazol-4-yl)-1,3-dihydroisoindol-2-yl]biphenyl-4-carboxylic acid 2-pyrrolidin-1-yl-ethyl ester], the IC50 was in the range of 2 to 5 µM.

For `Cc1cc(-c2ccccc2)cc(N2C(=O)c3ccc(-c4c[nH]nn4)cc3C2=O)n1` [Compound 88, 2-(6-Methyl-4-phenylpyridin-2-yl)-5-(1H-[1,2,3]triazol-4-yl)-isoindole-1,3-dione], the concentration for half-maximal inhibition (IC50) fell in the range of 5 to 20 µM.

As for `CN(C)CCCOC(=O)c1ccc(-c2ccc(Cl)cc2Cl)cc1NC(=O)c1cc(O)c(C(=O)O)cc1C(=O)O` [Example 51, 4-[(2′,4′-dichloro-4-{[3-(dimethylamino)propoxy]carbonyl}-[1,1′-biphenyl]-3-yl)carbamoyl]-6-hydroxybenzene-1,3-dicarboxylic acid], the IC50 was < 0.5 µM.

Turning to `O=C(O)c1ccc(-c2ccccc2)cc1N1Cc2ccc(-c3c[nH]nn3)cc2C1=O` [Compound 92, 3-[1-Oxo-6-(1H-[1,2,3]triazol-4-yl)-1,3-dihydroisoindol-2-yl]biphenyl-4-carboxylic Acid], the half-maximal inhibitory concentration (IC50) fell in the range of 2 to 5 µM.

On to `O=C(O)c1cc(C(=O)Nc2cc(-c3ccc(F)c(F)c3)ccc2O)c(C(=O)O)cc1O` [Example 37, 2-({3′,4′-difluoro-4-hydroxy-[1,1′-biphenyl]-3-yl}carbamoyl)-5-hydroxybenzene-1,4-dicarboxylic acid], for which the IC50 was < 0.5 µM.

For `O=C(O)c1ccc2c(c1)C(=O)N(c1cc(-c3ccccc3)ccc1-c1nnn[nH]1)C2=O` [Example 43], the IC50 was in the range of 0.5 to 2 µM.

Take `O=C(O)c1ccc(-c2ccc(F)c(F)c2)cc1N1Cc2ccc(-c3nnn[nH]3)cc2C1=O` [Compound 100, 3′,4′-Difluoro-3-[1-oxo-6-(1H-tetrazol-5-yl)-1,3-dihydroisoindol-2-yl]biphenyl-4-carboxylic Acid]: the 50% inhibitory concentration (IC50) was 0.5 to 2 µM.

In the case of `O=C(O)c1cc(C(=O)O)c(C(=O)Nc2cc(-c3ccc(F)c(F)c3)ccc2C(=O)O)cc1O` [Example 16, 4-({4-carboxy-3′,4′-difluoro-[1,1′-biphenyl]-3-yl}carbamoyl)-6-hydroxybenzene-1,3-dicarboxylic acid], the half-maximal inhibitory concentration (IC50) was < 20 µM.

On to `O=C(O)c1ccc2c(c1)C(=O)N(c1cc(-c3ccc(F)cc3F)ccc1C(=O)O)C2=O` [Example 53], for which the half-inhibitory concentration (IC50) is < 0.5 µM.

Regarding `O=C(O)c1ccc(-c2cccnc2)cc1N1C(=O)c2ccc(-c3c[nH]nn3)cc2C1=O` [Example 49], the concentration for half-maximal inhibition (IC50) was 2 to 5 µM.

For the compound `O=C1c2ccc(-c3c[nH]nn3)cc2C(=O)N1c1ccc(-c2ccccc2)cn1` [Compound 86, 2-(5-Phenylpyridin-2-yl)-5-(1H-[1,2,3]triazol-4-yl)-isoindole-1,3-dione], the IC50 was < 20 µM.

On to `NCCOC(=O)c1ccc(-c2ccccc2)cc1N1C(=O)c2ccc(-c3c[nH]nn3)cc2C1=O` [Compound 72, 3-[1,3-Dioxo-5-(1H-[1,2,3]triazol-4-yl)-1,3-dihydroisoindol-2-yl]biphenyl-4-carboxylic Acid 2-amino-ethyl ester], for which the half-maximal inhibitory concentration (IC50) was < 20 µM.

Turning to `COc1ccc(-c2c(C)sc(N3C(=O)c4ccc(C(=O)N[C@@H](Cc5c[nH]c6ccccc56)C(=O)O)cc4C3=O)c2C#N)cc1` [Example 17], the IC50 was in the range of 0.5 to 2 µM.

In the case of `NC(=O)c1ccc(-c2ccc(F)c(F)c2)cc1N1Cc2ccc(-c3nnn[nH]3)cc2C1=O` [Compound 101, 3′,4′-Difluoro-3-[1-oxo-6-(1H-tetrazol-5-yl)-1,3-dihydroisoindol-2-yl]biphenyl-4-carboxylic acid amide], the half-inhibitory concentration (IC50) fell in the range of 5 to 20 µM.

Consider `O=C(O)c1ccc2c(c1)C(=O)N(c1ccc(-c3c[nH]cn3)cc1C(=O)O)C2=O` [Compound 75, 2-[2-Carboxy-4-(1H-imidazol-4-yl)-phenyl]-1,3-dioxo-2,3-dihydro-1H-isoindole-5-carboxylic Acid], for which the IC50 was < 0.5 µM.

Turning to `COC(=O)c1cc(-c2ccccc2)ccc1N1C(=O)c2ccc(C(=O)NS(=O)(=O)c3ccccc3)cc2C1=O` [compound 152, methyl 4-(1,3-dioxo-5-(phenylsulfonylcarbamoyl)isoindolin-2-yl)biphenyl-3-carboxylate], the 50% inhibitory concentration (IC50) was < 20 µM.

For the compound `CN(C)CCCOC(=O)c1ccc(-c2ccc(F)c(F)c2)cc1N1Cc2ccc(C(=O)NS(C)(=O)=O)cc2C1=O` [Compound 124, 3′,4′-Difluoro-3-(6-methanesulfonylaminocarbonyl-1-oxo-1,3-dihydro-isoindol-2-yl)-biphenyl-4-carboxylic acid 3-dimethylamino-propyl ester], the 50% inhibitory concentration (IC50) was < 20 µM.
